Reference: patent US10004701B2, “Methods and compositions for treating infection” (UNIVERSITY OF ROCHESTER, priority 2012, dated 2018)
Structures can show the parent of a compound that is named as a salt. Where two headings read alike, the source gives them in different places.

Assays:
Test in all cases: AK assay 384-well format, Prestwick library screening
[1] = system: E. cloacae; assay type: cell-based, Enterobacter cloacae; conditions: 50 μM final drug concentration; for fold induction at 50 µM: Enterobacter cloacae, 3 h
[2] = system: A. baumannii strain 98-37-09; assay type: cell-based, Acinetobacter baumannii; conditions: 50 μM final drug concentration; for fold induction at 50 µM: Acinetobacter baumannii, 983709, 3 h
[3] = system: E. coli; assay type: cell-based, Escherichia coli; conditions: 50 μM final drug concentration; for fold induction at 50 µM: Escherichia coli, 3 h
[4] = system: K. pneumoniae; assay type: cell-based, Klebsiella pneumoniae; conditions: 50 μM final drug concentration; for fold induction at 50 µM: Klebsiella pneumoniae, 3 h
[5] = system: E. faecium; assay type: cell-based, Enterococcus faecium; conditions: 50 μM final drug concentration; for fold induction at 50 µM: Enterococcus faecium, 3 h
[6] = system: S. aureus strain USA300-0114; assay type: cell-based, Staphylococcus aureus; conditions: 50 μM final drug concentration; for fold induction at 50 µM: Staphylococcus aureus, USA300, 3 h
[7] = system: P. aeruginosa; assay type: cell-based, Pseudomonas aeruginosa; conditions: 50 μM final drug concentration; for fold induction at 50 µM: Pseudomonas aeruginosa, 3 h
[8] = 384-well format, cutoff for positive-scoring molecules 3-fold increase
[9] = planktonic, cutoff for positive-scoring molecules 3-fold increase
[10] = planktonic, cutoff for positive 3-fold increase

CC[C@@]1([C@@H]2O[C@@H]([C@H]3O[C@@](O)(CO)[C@H](C)C[C@@H]3C)C[C@@H]2C)CC[C@H]([C@]2(C)CC[C@]3(C[C@H](O)[C@@H](C)[C@@H]([C@@H](C)[C@@H](OC)[C@H](C)C(=O)O)O3)O2)O1 [Monensin sodium salt]
fold induction at 50 µM ([1]; planktonic, cutoff for positive-scoring molecules 3-fold increase, read-out: AK-based Prestwick Library Screening Results, E. cloacae (fold increase in extracellular AK activity)): 1.1 | fold induction at 50 µM ([2]; planktonic, cutoff for positive-scoring molecules 3-fold increase, read-out: AK-based Prestwick Library Screening Results, A. baumannii (fold increase in extracellular AK activity)): 0.7 | fold induction at 50 µM ([3]; planktonic, cutoff for positive-scoring molecules 3-fold increase, read-out: AK-based Prestwick Library Screening Results, E. coli (fold increase in extracellular AK activity)): 0.9 | fold induction at 50 µM ([4]; planktonic, cutoff for positive-scoring molecules 3-fold increase, read-out: AK-based Prestwick Library Screening Results, K. pneumoniae (fold increase in extracellular AK activity)): 0.6 | fold induction at 50 µM ([5]; planktonic, cutoff for positive-scoring molecules 3-fold increase, read-out: AK-based Prestwick Library Screening Results, E. faecium (fold increase in extracellular AK activity)): 1.1 | fold induction at 50 µM ([6]; planktonic, cutoff for positive-scoring molecules 3-fold increase, read-out: AK-based Prestwick Library Screening Results, S. aureus (fold increase in extracellular AK activity)): 0.7 | fold induction at 50 µM ([7]; planktonic, cutoff for positive-scoring molecules 3-fold increase, read-out: AK-based Prestwick Library Screening Results, P. aeruginosa (fold increase in extracellular AK activity)): 0.9

Cc1c(O)c(=O)n(-c2ccccc2)n1C [Antipyrine, 4-hydroxy]
AK-based Prestwick Library Screening Results, E. cloacae (increase in extracellular AK activity) [1, 8]: 1.0 | AK-based Prestwick Library Screening Results, A. baumannii (increase in extracellular AK activity) [2, 8]: 0.8 | AK-based Prestwick Library Screening Results, E. coli (increase in extracellular AK activity) [3, 8]: 0.9 | AK-based Prestwick Library Screening Results, K. pneumoniae (increase in extracellular AK activity) [4, 8]: 0.7 | AK-based Prestwick Library Screening Results, E. faecium (increase in extracellular AK activity) [5, 8]: 1.0 | AK-based Prestwick Library Screening Results, S. aureus (increase in extracellular AK activity) [6, 8]: 0.7 | AK-based Prestwick Library Screening Results, P. aeruginosa (increase in extracellular AK activity) [7, 8]: 0.8

CN1CCc2cc3c(cc2[C@H]1[C@@H]1OC(=O)c2c1ccc1c2OCO1)OCO3 [Bicuculline (+)]
AK-based Prestwick Library Screening Results, E. cloacae (increase in extracellular AK activity) ([1]; planktonic E. cloacae, […]): 0.9 | AK-based Prestwick Library Screening Results, A. baumannii (increase in extracellular AK activity) ([2]; planktonic A. baumannii, […]): 0.8 | AK-based Prestwick Library Screening Results, E. coli (increase in extracellular AK activity) ([3]; planktonic E. coli, […]): 0.8 | AK-based Prestwick Library Screening Results, K. pneumoniae (increase in extracellular AK activity) ([4]; planktonic K. pneumoniae, […]): 0.8 | AK-based Prestwick Library Screening Results, E. faecium (increase in extracellular AK activity) ([5]; planktonic E. faecium, […]): 0.9 | AK-based Prestwick Library Screening Results, S. aureus (increase in extracellular AK activity) ([6]; planktonic S. aureus, […]): 0.6 | AK-based Prestwick Library Screening Results, P. aeruginosa (increase in extracellular AK activity) ([7]; planktonic P. aeruginosa, […]): 0.9

Viomycin sulfate
AK-based Prestwick library screening result, E. cloacae (fold increase in extracellular AK activity) ([1]; planktonic E. cloacae, […]): 1.6 | AK-based Prestwick library screening result, A. baumannii (fold increase in extracellular AK activity) ([2]; planktonic A. baumannii, […]): 1.1 | AK-based Prestwick library screening result, E. coli (fold increase in extracellular AK activity) ([3]; planktonic E. coli, […]): 1.0 | AK-based Prestwick library screening result, K. pneumoniae (fold increase in extracellular AK activity) ([4]; planktonic K. pneumoniae, […]): 0.9 | AK-based Prestwick library screening result, E. faecium (fold increase in extracellular AK activity) ([5]; planktonic E. faecium, […]): 1.0 | AK-based Prestwick library screening result, S. aureus (fold increase in extracellular AK activity) ([6]; planktonic S. aureus, […]): 1.3 | AK-based Prestwick library screening result, P. aeruginosa (fold increase in extracellular AK activity) ([7]; planktonic P. aeruginosa, […]): 0.9

Cc1c(C)c2c(c(C)c1O)CCC(C)(C(=O)O)O2 (stereo not shown) [Trolox]
fold induction at 50 µM ([1]; planktonic, cutoff for positive 3-fold increase, read-out: AK-based Prestwick Library Screening Results, E. cloacae (fold increase in extracellular AK activity)): 1.6 | fold induction at 50 µM ([2]; planktonic, cutoff for positive 3-fold increase, read-out: AK-based Prestwick Library Screening Results, A. baumannii (fold increase in extracellular AK activity)): 1.1 | fold induction at 50 µM ([3]; planktonic, cutoff for positive 3-fold increase, read-out: AK-based Prestwick Library Screening Results, E. coli (fold increase in extracellular AK activity)): 1.1 | fold induction at 50 µM ([4]; planktonic, cutoff for positive 3-fold increase, read-out: AK-based Prestwick Library Screening Results, K. pneumoniae (fold increase in extracellular AK activity)): 1.1 | fold induction at 50 µM ([5]; planktonic, cutoff for positive 3-fold increase, read-out: AK-based Prestwick Library Screening Results, E. faecium (fold increase in extracellular AK activity)): 1.1 | fold induction at 50 µM ([6]; planktonic, cutoff for positive 3-fold increase, read-out: AK-based Prestwick Library Screening Results, S. aureus (fold increase in extracellular AK activity)): 1.6 | fold induction at 50 µM ([7]; planktonic, cutoff for positive 3-fold increase, read-out: AK-based Prestwick Library Screening Results, P. aeruginosa (fold increase in extracellular AK activity)): 1.1

NCc1ccc(S(N)(=O)=O)cc1 [Mafenide hydrochloride]
fold induction at 50 µM ([1]; 384-well format, cutoff for positive-scoring molecules 3-fold increase, read-out: AK-based Prestwick Library Screening Results, E. cloacae (increase in extracellular AK activity)): 0.6 | fold induction at 50 µM ([2]; 384-well format, cutoff for positive-scoring molecules 3-fold increase, read-out: AK-based Prestwick Library Screening Results, A. baumannii (increase in extracellular AK activity)): 0.5 | fold induction at 50 µM ([3]; 384-well format, cutoff for positive-scoring molecules 3-fold increase, read-out: AK-based Prestwick Library Screening Results, E. coli (increase in extracellular AK activity)): 0.6 | fold induction at 50 µM ([4]; 384-well format, cutoff for positive-scoring molecules 3-fold increase, read-out: AK-based Prestwick Library Screening Results, K. pneumoniae (increase in extracellular AK activity)): 0.5 | fold induction at 50 µM ([5]; 384-well format, cutoff for positive-scoring molecules 3-fold increase, read-out: AK-based Prestwick Library Screening Results, E. faecium (increase in extracellular AK activity)): 1.2 | fold induction at 50 µM ([6]; 384-well format, cutoff for positive-scoring molecules 3-fold increase, read-out: AK-based Prestwick Library Screening Results, S. aureus (increase in extracellular AK activity)): 0.6 | fold induction at 50 µM ([7]; 384-well format, cutoff for positive-scoring molecules 3-fold increase, read-out: AK-based Prestwick Library Screening Results, P. aeruginosa (increase in extracellular AK activity)): 0.5

CN1CCC2=C[C@H](O)[C@H]3OC(=O)c4cc5c(cc4[C@H]3[C@@H]21)OCO5 [Hippeastrine hydrobromide]
AK-based Prestwick Library Screening Results, E. cloacae (fold increase in extracellular AK activity) [1, 9]: 1.4 | AK-based Prestwick Library Screening Results, A. baumannii (fold increase in extracellular AK activity) [2, 9]: 0.8 | AK-based Prestwick Library Screening Results, E. coli (fold increase in extracellular AK activity) [3, 9]: 0.9 | AK-based Prestwick Library Screening Results, K. pneumoniae (fold increase in extracellular AK activity) [4, 9]: 0.6 | AK-based Prestwick Library Screening Results, E. faecium (fold increase in extracellular AK activity) [5, 9]: 0.9 | AK-based Prestwick Library Screening Results, S. aureus (fold increase in extracellular AK activity) [6, 9]: 0.7 | AK-based Prestwick Library Screening Results, P. aeruginosa (fold increase in extracellular AK activity) [7, 9]: 0.9

CSc1ccc2c(c1)C(N1CCN(C)CC1)Cc1ccccc1S2.O=C(O)/C=C\C(=O)O (stereo not shown) [Methiothepin maleate]
AK-based Prestwick Library Screening Results, E. cloacae (fold increase in extracellular AK activity) [1, 10]: 1.8 | AK-based Prestwick Library Screening Results, A. baumannii (fold increase in extracellular AK activity) [2, 10]: 1.5 | AK-based Prestwick Library Screening Results, E. coli (fold increase in extracellular AK activity) [3, 10]: 1.4 | AK-based Prestwick Library Screening Results, K. pneumoniae (fold increase in extracellular AK activity) [4, 10]: 1.3 | AK-based Prestwick Library Screening Results, E. faecium (fold increase in extracellular AK activity) [5, 10]: 1.0 | AK-based Prestwick Library Screening Results, S. aureus (fold increase in extracellular AK activity) [6, 10]: 1.3 | AK-based Prestwick Library Screening Results, P. aeruginosa (fold increase in extracellular AK activity) [7, 10]: 1.1

O=C1C=C2C=C[C@@H]3C[C@@]2(O1)[C@H]1CCCCN31 [Securinine]
fold induction at 50 µM ([1]; […], read-out: AK-based Prestwick Library Screening Results, E. cloacae (fold increase in extracellular AK activity)): 1.6 | fold induction at 50 µM ([2]; […], read-out: AK-based Prestwick Library Screening Results, A. baumannii (fold increase in extracellular AK activity)): 1.1 | fold induction at 50 µM ([3]; […], read-out: AK-based Prestwick Library Screening Results, E. coli (fold increase in extracellular AK activity)): 1.3 | fold induction at 50 µM ([4]; […], read-out: AK-based Prestwick Library Screening Results, K. pneumoniae (fold increase in extracellular AK activity)): 0.8 | fold induction at 50 µM ([5]; […], read-out: AK-based Prestwick Library Screening Results, E. faecium (fold increase in extracellular AK activity)): 1 | fold induction at 50 µM ([6]; […], read-out: AK-based Prestwick Library Screening Results, S. aureus (fold increase in extracellular AK activity)): 1.1 | fold induction at 50 µM ([7]; […], read-out: AK-based Prestwick Library Screening Results, P. aeruginosa (fold increase in extracellular AK activity)): 1.2

NS(=O)(=O)c1cc(C2(O)NC(=O)c3ccccc32)ccc1Cl (stereo not shown) [Chlorthalidone]
fold induction at 50 µM ([1]; planktonic E. cloacae, cutoff for positive-scoring molecules 3-fold increase, read-out: AK-based Prestwick Library Screening Results, E. cloacae (increase in extracellular AK activity)): 1 | fold induction at 50 µM ([2]; planktonic A. baumannii, cutoff for positive-scoring molecules 3-fold increase, read-out: AK-based Prestwick Library Screening Results, A. baumannii (increase in extracellular AK activity)): 0.8 | fold induction at 50 µM ([3]; planktonic E. coli, cutoff for positive-scoring molecules 3-fold increase, read-out: AK-based Prestwick Library Screening Results, E. coli (increase in extracellular AK activity)): 0.9 | fold induction at 50 µM ([4]; planktonic K. pneumoniae, cutoff for positive-scoring molecules 3-fold increase, read-out: AK-based Prestwick Library Screening Results, K. pneumoniae (increase in extracellular AK activity)): 0.6 | fold induction at 50 µM ([5]; planktonic E. faecium, cutoff for positive-scoring molecules 3-fold increase, read-out: AK-based Prestwick Library Screening Results, E. faecium (increase in extracellular AK activity)): 0.9 | fold induction at 50 µM ([6]; planktonic S. aureus, cutoff for positive-scoring molecules 3-fold increase, read-out: AK-based Prestwick Library Screening Results, S. aureus (increase in extracellular AK activity)): 0.7 | fold induction at 50 µM ([7]; planktonic P. aeruginosa, cutoff for positive-scoring molecules 3-fold increase, read-out: AK-based Prestwick Library Screening Results, P. aeruginosa (increase in extracellular AK activity)): 0.8
